# Source: PubChem BioAssay (NCI)
#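 Method: 48-hour compound exposure of cells in 96-well plates, five concentrations, linear interpolation of endpoints. Abbreviation: GI50, concentration required for 50% inhibition of growth. TGI: total growth inhibition.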
# Legend:
# Assay in all cases: NCI-60 cell line screen, 48 h
# SNB-75 CNS = system: SNB-75 CNS
# SW-620 colon = system: SW-620 colon
# 786-0 renal = system: 786-0 renal
# MDA-MB-231 breast = system: MDA-MB-231 breast
# ACHN renal = system: ACHN renal
# U251 CNS = system: U251 CNS
# EKVX NSCLC = system: EKVX NSCLC
# BT-549 breast = system: BT-549 breast
# SN12C renal = system: SN12C renal
# UACC-62 melanoma = system: UACC-62 melanoma
# SK-MEL-2 melanoma = system: SK-MEL-2 melanoma
# OVCAR-4 ovarian = system: OVCAR-4 ovarian
# HCT-116 colon = system: HCT-116 colon
# T-47D breast = system: T-47D breast
# COLO 205 colon = system: COLO 205 colon
# SK-MEL-28 melanoma = system: SK-MEL-28 melanoma
# HL-60(TB) leukemia = system: HL-60(TB) leukemia
# UACC-257 melanoma = system: UACC-257 melanoma
# HS 578T breast = system: HS 578T breast
# HOP-92 NSCLC = system: HOP-92 NSCLC
# IGROV1 ovarian = system: IGROV1 ovarian
# MDA-MB-435 = system: MDA-MB-435
# LOX IMVI melanoma = system: LOX IMVI melanoma
# NCI-H23 lung = system: NCI-H23 lung
# MCF7 breast = system: MCF7 breast
# CCRF-CEM leukemia = system: CCRF-CEM leukemia
# OVCAR-5 ovarian = system: OVCAR-5 ovarian
# HCC-2998 colon = system: HCC-2998 colon
# RXF 393 renal = system: RXF 393 renal
# K-562 leukemia = system: K-562 leukemia
# SNB-19 CNS = system: SNB-19 CNS
# SF-539 CNS = system: SF-539 CNS
# TK-10 renal = system: TK-10 renal
# SR leukemia = system: SR leukemia
# A549 NSCLC = system: A549 NSCLC
# UO-31 renal = system: UO-31 renal
# PC-3 prostate = system: PC-3 prostate
# HCT-15 colon = system: HCT-15 colon
# MALME-3M melanoma = system: MALME-3M melanoma
# NCI-H522 lung = system: NCI-H522 lung
# SF-295 CNS = system: SF-295 CNS
# NCI-H226 lung = system: NCI-H226 lung
# SF-268 CNS = system: SF-268 CNS
# HOP-62 NSCLC = system: HOP-62 NSCLC
# NCI-H460 lung = system: NCI-H460 lung
# M14 melanoma = system: M14 melanoma
# HT29 colon = system: HT29 colon
# KM12 colon = system: KM12 colon
# A498 renal = system: A498 renal
# SK-OV-3 ovarian = system: SK-OV-3 ovarian
# DU-145 prostate = system: DU-145 prostate
# CAKI-1 renal = system: CAKI-1 renal
# OVCAR-8 ovarian = system: OVCAR-8 ovarian
# SK-MEL-5 melanoma = system: SK-MEL-5 melanoma
# OVCAR-3 ovarian = system: OVCAR-3 ovarian
# RPMI-8226 leukemia = system: RPMI-8226 leukemia
# NCI/ADR-RES ovarian = system: NCI/ADR-RES ovarian
# MOLT-4 leukemia = system: MOLT-4 leukemia
structure (smiles),measurement,setting,value
Cc1cc2nc3c4cc([N+](=O)[O-])ccc4n(CCN(C)C)c3nc2cc1C,GI50,SNB-75 CNS,842 nM
same,TGI,SNB-75 CNS,2700 nM
same,GI50,SW-620 colon,301 nM
same,TGI,SW-620 colon,7190 nM
same,GI50,786-0 renal,628 nM
same,TGI,786-0 renal,3020 nM
same,GI50,MDA-MB-231 breast,602 nM
same,TGI,MDA-MB-231 breast,> 32700 nM
same,GI50,ACHN renal,297 nM
same,TGI,ACHN renal,1680 nM
same,GI50,U251 CNS,480 nM
same,TGI,U251 CNS,11900 nM
same,GI50,EKVX NSCLC,579 nM
same,TGI,EKVX NSCLC,5490 nM
same,GI50,BT-549 breast,2000 nM
same,TGI,BT-549 breast,5850 nM
same,GI50,SN12C renal,448 nM
same,TGI,SN12C renal,> 54800 nM
same,GI50,UACC-62 melanoma,594 nM
same,TGI,UACC-62 melanoma,2130 nM
same,GI50,SK-MEL-2 melanoma,1000 nM
same,TGI,SK-MEL-2 melanoma,3030 nM
same,GI50,OVCAR-4 ovarian,527 nM
same,TGI,OVCAR-4 ovarian,6600 nM
same,GI50,HCT-116 colon,353 nM
same,TGI,HCT-116 colon,2840 nM
same,GI50,T-47D breast,549 nM
same,TGI,T-47D breast,> 42000 nM
same,GI50,COLO 205 colon,363 nM
same,TGI,COLO 205 colon,2480 nM
same,GI50,SK-MEL-28 melanoma,967 nM
same,TGI,SK-MEL-28 melanoma,2480 nM
same,GI50,HL-60(TB) leukemia,622 nM
same,TGI,HL-60(TB) leukemia,3970 nM
same,GI50,UACC-257 melanoma,725 nM
same,TGI,UACC-257 melanoma,4210 nM
same,GI50,HS 578T breast,1390 nM
same,TGI,HS 578T breast,5870 nM
same,GI50,HOP-92 NSCLC,648 nM
same,TGI,HOP-92 NSCLC,13300 nM
same,GI50,IGROV1 ovarian,385 nM
same,TGI,IGROV1 ovarian,3230 nM
same,GI50,MDA-MB-435,635 nM
same,TGI,MDA-MB-435,1960 nM
same,GI50,LOX IMVI melanoma,280 nM
same,TGI,LOX IMVI melanoma,1190 nM
same,GI50,NCI-H23 lung,501 nM
same,TGI,NCI-H23 lung,2580 nM
same,GI50,MCF7 breast,360 nM
same,GI50,CCRF-CEM leukemia,642 nM
same,TGI,CCRF-CEM leukemia,21300 nM
same,GI50,OVCAR-5 ovarian,651 nM
same,TGI,OVCAR-5 ovarian,9820 nM
same,GI50,HCC-2998 colon,683 nM
same,TGI,HCC-2998 colon,2340 nM
same,GI50,RXF 393 renal,650 nM
same,TGI,RXF 393 renal,2210 nM
same,GI50,K-562 leukemia,366 nM
same,TGI,K-562 leukemia,> 100000 nM
same,GI50,SNB-19 CNS,487 nM
same,TGI,SNB-19 CNS,> 32000 nM
same,GI50,SF-539 CNS,469 nM
same,TGI,SF-539 CNS,2560 nM
same,GI50,TK-10 renal,373 nM
same,TGI,TK-10 renal,4340 nM
same,GI50,SR leukemia,253 nM
same,TGI,SR leukemia,5100 nM
same,GI50,A549 NSCLC,397 nM
same,TGI,A549 NSCLC,3670 nM
same,GI50,UO-31 renal,187 nM
same,TGI,UO-31 renal,2520 nM
same,GI50,PC-3 prostate,548 nM
same,TGI,PC-3 prostate,10700 nM
same,GI50,HCT-15 colon,360 nM
same,TGI,HCT-15 colon,3040 nM
same,GI50,MALME-3M melanoma,527 nM
same,TGI,MALME-3M melanoma,1870 nM
same,GI50,NCI-H522 lung,893 nM
same,TGI,NCI-H522 lung,4940 nM
same,GI50,SF-295 CNS,388 nM
same,TGI,SF-295 CNS,1790 nM
same,GI50,NCI-H226 lung,966 nM
same,TGI,NCI-H226 lung,5810 nM
same,GI50,SF-268 CNS,787 nM
same,TGI,SF-268 CNS,6920 nM
same,GI50,HOP-62 NSCLC,579 nM
same,TGI,HOP-62 NSCLC,> 40000 nM
same,GI50,NCI-H460 lung,352 nM
same,TGI,NCI-H460 lung,1750 nM
same,GI50,M14 melanoma,467 nM
same,TGI,M14 melanoma,1990 nM
same,GI50,HT29 colon,387 nM
same,TGI,HT29 colon,2330 nM
same,GI50,KM12 colon,560 nM
same,TGI,KM12 colon,> 100000 nM
same,GI50,A498 renal,452 nM
same,TGI,A498 renal,1740 nM
same,GI50,SK-OV-3 ovarian,905 nM
same,TGI,SK-OV-3 ovarian,> 43400 nM
same,GI50,DU-145 prostate,710 nM
same,TGI,DU-145 prostate,> 27800 nM
same,GI50,CAKI-1 renal,334 nM
same,TGI,CAKI-1 renal,2210 nM
same,GI50,OVCAR-8 ovarian,509 nM
same,TGI,OVCAR-8 ovarian,> 88000 nM
same,GI50,SK-MEL-5 melanoma,1020 nM
same,TGI,SK-MEL-5 melanoma,2210 nM
same,GI50,OVCAR-3 ovarian,590 nM
same,TGI,OVCAR-3 ovarian,5230 nM
same,GI50,RPMI-8226 leukemia,459 nM
same,TGI,RPMI-8226 leukemia,3190 nM
same,GI50,NCI/ADR-RES ovarian,382 nM
same,TGI,NCI/ADR-RES ovarian,4600 nM
same,GI50,MOLT-4 leukemia,373 nM
same,TGI,MOLT-4 leukemia,8680 nM
O=[N+]([O-])c1ccc2c(N=Nc3ccc4ccccc4c3O)c(O)cc(S(=O)(=O)O)c2c1,TGI,SNB-75 CNS,> 93600 nM
same,TGI,SW-620 colon,> 100000 nM
same,TGI,786-0 renal,> 81100 nM
same,TGI,MDA-MB-231 breast,> 100000 nM
same,TGI,ACHN renal,50300 nM
same,TGI,U251 CNS,> 100000 nM
same,TGI,EKVX NSCLC,> 82100 nM
same,TGI,BT-549 breast,> 100000 nM
same,TGI,SN12C renal,> 100000 nM
same,TGI,UACC-62 melanoma,71900 nM
same,TGI,SK-MEL-2 melanoma,> 100000 nM
same,TGI,OVCAR-4 ovarian,> 100000 nM
same,TGI,HCT-116 colon,> 100000 nM
same,TGI,T-47D breast,> 100000 nM
same,TGI,COLO 205 colon,> 82900 nM
same,TGI,SK-MEL-28 melanoma,> 100000 nM
same,TGI,HL-60(TB) leukemia,23100 nM
same,TGI,UACC-257 melanoma,> 100000 nM
same,TGI,HS 578T breast,> 100000 nM
same,TGI,HOP-92 NSCLC,> 100000 nM
same,TGI,IGROV1 ovarian,> 61900 nM
same,TGI,MDA-MB-435,> 100000 nM
same,TGI,LOX IMVI melanoma,> 90200 nM
same,TGI,NCI-H23 lung,> 93400 nM
same,TGI,MCF7 breast,> 100000 nM
same,TGI,CCRF-CEM leukemia,22000 nM
same,TGI,OVCAR-5 ovarian,> 100000 nM
same,TGI,HCC-2998 colon,> 100000 nM
same,TGI,RXF 393 renal,> 100000 nM
same,TGI,K-562 leukemia,> 95100 nM
same,TGI,SNB-19 CNS,> 83200 nM
same,TGI,SF-539 CNS,> 28500 nM
same,TGI,TK-10 renal,> 100000 nM
same,TGI,SR leukemia,> 69400 nM
same,TGI,A549 NSCLC,> 100000 nM
same,TGI,UO-31 renal,47400 nM
same,TGI,PC-3 prostate,> 100000 nM
same,TGI,HCT-15 colon,> 100000 nM
same,TGI,MALME-3M melanoma,85000 nM
same,TGI,NCI-H522 lung,> 57300 nM
same,TGI,SF-295 CNS,> 85700 nM
same,TGI,NCI-H226 lung,52500 nM
same,TGI,SF-268 CNS,63900 nM
same,TGI,HOP-62 NSCLC,99700 nM
same,TGI,NCI-H460 lung,> 100000 nM
same,TGI,M14 melanoma,32400 nM
same,TGI,HT29 colon,> 100000 nM
same,TGI,KM12 colon,> 100000 nM
same,TGI,A498 renal,> 100000 nM
same,TGI,SK-OV-3 ovarian,> 100000 nM
same,TGI,DU-145 prostate,> 88400 nM
same,TGI,CAKI-1 renal,> 80600 nM
same,TGI,OVCAR-8 ovarian,> 93600 nM
same,TGI,SK-MEL-5 melanoma,53600 nM
same,TGI,OVCAR-3 ovarian,99500 nM
same,TGI,RPMI-8226 leukemia,61500 nM
same,TGI,NCI/ADR-RES ovarian,> 90300 nM
same,TGI,MOLT-4 leukemia,> 51000 nM
